Experimental findings from patent publication USRE47047E1, “5-[(3,3,3-trifluoro-2-hydroxy-1-arylpropyl)amino]-1H-quinolin-2-ones, a process for their production and their use as anti-inflammatory agents” (ASTRAZENECA AB, priority 2007, dated 2018) are described below.

Assay [1] concerns the target T1, glucocorticoid receptor (GR) (Homo sapiens, UniProt P04150).
T1 construct: made in house; host or cells: Sf9 insect cells infected with recombinant baculovirus; cytosol preparation
T1 sequence (P04150 1-777): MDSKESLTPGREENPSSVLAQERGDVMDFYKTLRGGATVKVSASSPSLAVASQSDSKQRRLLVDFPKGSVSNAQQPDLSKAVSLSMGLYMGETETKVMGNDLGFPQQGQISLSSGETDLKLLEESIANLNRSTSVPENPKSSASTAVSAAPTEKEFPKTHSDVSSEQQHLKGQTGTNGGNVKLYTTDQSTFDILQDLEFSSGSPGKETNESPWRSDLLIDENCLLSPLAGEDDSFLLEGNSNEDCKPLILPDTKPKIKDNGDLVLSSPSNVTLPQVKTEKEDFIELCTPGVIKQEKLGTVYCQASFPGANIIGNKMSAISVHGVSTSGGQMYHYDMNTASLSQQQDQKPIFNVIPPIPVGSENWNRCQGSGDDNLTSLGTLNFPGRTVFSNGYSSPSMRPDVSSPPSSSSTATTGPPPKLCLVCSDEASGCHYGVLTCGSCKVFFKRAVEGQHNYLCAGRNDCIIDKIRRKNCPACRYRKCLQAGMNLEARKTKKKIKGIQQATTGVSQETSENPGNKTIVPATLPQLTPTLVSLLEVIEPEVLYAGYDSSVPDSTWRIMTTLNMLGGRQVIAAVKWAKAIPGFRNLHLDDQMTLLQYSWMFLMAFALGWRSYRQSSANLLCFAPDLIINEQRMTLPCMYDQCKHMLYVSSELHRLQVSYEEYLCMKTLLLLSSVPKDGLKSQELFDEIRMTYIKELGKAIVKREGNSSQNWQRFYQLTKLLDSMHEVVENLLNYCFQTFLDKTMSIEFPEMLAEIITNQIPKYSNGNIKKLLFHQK
As to the kind of experiment: Binding to the glucocorticoid receptor (GR), recombinant receptor in cytosol preparations of Sf9 cells, [3H]-dexamethasone as reference. As to conditions: reference [3H]-dexamethasone. The source says:
The binding of the substances to the glucocorticoid receptor (GR) and other steroid hormone receptors (mineral corticoid receptor (MR), progesterone receptor (PR) and androgen receptor (AR)) is examined with the aid of recombinantly produced receptors. Cytosol preparations of Sf9 cells, which had been infected with recombinant baculoviruses, which code for the GR, are used for the binding studies. In comparison to reference substance [^3H]-dexamethasone, the substances show a high to very high affinity to GR.

The subject of assay [2] is IL-8 secretion in human monocyte cell line THP-1. The assay is described as follows: Inhibition of LPS-triggered secretion of cytokine IL-8 in THP-1 cells (ELISA). It is filed as cell-based. As to conditions: for IC50: Homo sapiens, THP-1 cells, LPS-triggered, ELISA of supernatant, read-out: IC50(IL8); for efficacy of IL-8 inhibition: in comparison with dexamethasone as reference. As for the experimental part: The concentration of the cytokines was determined in the supernatant by means of commercially available ELISA kits.

What is called IC50 is the concentration that inhibits the measured activity by half. On to `COc1ccc(C(Nc2cccc3[nH]c(=O)ccc23)C(O)(CSC)C(F)(F)F)c(F)c1` (stereo not drawn) [Example 1, 5-{[1-(2-Fluoro-4-methoxyphenyl)-3,3,3-trifluoro-2-hydroxy-2-([methylsulfanyl]methyl)propyl]amino}-1H-quinolin-2-one], for which, in assay [1], the IC50 was 6.8 nM.

As for `CCSCC(O)(C(Nc1cc(F)cc2[nH]c(=O)ccc12)c1ccc(OC)c(F)c1Cl)C(F)(F)F` (stereo not drawn) [Example 4, 5-{[1-(2-Chloro-3-fluoro-4-methoxyphenyl)-2-([ethylsulfanyl]methyl)-3,3,3-trifluoro-2-hydroxypropyl]amino}-7-fluoro-1H-quinolin-2-one], in assay [2], the IC50 was determined as 0.61 nM and the “efficacy of IL-8 inhibition” value amounted to 97%. For the same compound, in assay [1], the IC50 came out at 5.7 nM.

Turning to `COCC(O)(C(Nc1cc(F)cc2[nH]c(=O)ccc12)c1ccc(OC)c(F)c1Cl)C(F)(F)F` (stereo not drawn) [Example 5, 5-{[1-(2-Chloro-3-fluoro-4-methoxyphenyl)-3,3,3-trifluoro-2-hydroxy-2-(methoxymethyl)propyl]amino}-7-fluoro-1H-quinolin-2-one], in assay [2], the concentration for half-maximal inhibition (IC50) is 0.19 nM and the “efficacy of IL-8 inhibition” value was determined as 98%. For the same compound, the half-inhibitory concentration (IC50) in assay [1] came out at 3.1 nM.

With `COc1ccc(C(Nc2cc(F)cc3[nH]c(=O)ccc23)C(O)(CO)C(F)(F)F)c(Cl)c1F` (stereo not drawn) [Example 7, 5-{[1-(2-Chloro-3-fluoro-4-methoxyphenyl)-3,3,3-trifluoro-2-hydroxy-2-(hydroxymethyl)-propyl]amino}-7-fluoro-1H-quinolin-2-one], in assay [2], the IC50 came to 0.44 nM and the “efficacy of IL-8 inhibition” value amounted to 98%. Further, the IC50 in assay [1] worked out at 7.1 nM.

For the compound `COc1c(F)cc(Cl)cc1C(Nc1cc(F)cc2[nH]c(=O)ccc12)C(O)(CO)C(F)(F)F` (stereo not drawn) [Example 8, 5-{[1-(5-Chloro-3-fluoro-2-methoxyphenyl)-3,3,3-trifluoro-2-hydroxy-2-(hydroxymethyl)-propyl]amino}-7-fluoro-1H-quinolin-2-one], in assay [2], the 50% inhibitory concentration (IC50) came to 3.1 nM and the “efficacy of IL-8 inhibition” value is listed as 80%.
